The source of these data is patent US9481648B2, “Kinase inhibitors” (Respivert Limited, priority 2013, dated 2016).

Molecules are shown by their SMILES. Like-named read-outs stand apart in the source and are kept apart here.

The nature of data set [1]: Plasma pharmacokinetics and total colon tissue distribution in mice, single oral administration. Conditions: male, C57BL/6, mouse, 5 mg/kg. Format: in vivo, mouse (male C57BL/6). The protocol:
Studies were conducted by Sai Life Sciences (Hinjewadi, Pune, India) to investigate the plasma pharmacokinetics and total colon tissue distribution of compounds of the invention. In particular, pharmacokinetic studies were carried out in: • male C57BL/6 mice, following a single oral administration; and • male Wistar rats following a single intravenous or oral administration.

The next data set relates to human hepatocytes. In words: Human hepatocyte stability test. Format: in vitro ADME. The protocol:
Assessment of certain in vitro ADME (absorption, distribution, metabolism, and excretion) parameters for certain compounds of the invention was conducted by BioFocus (Saffron Walden, UK).

Another data set has as its target Syk (Homo sapiens (Human), UniProt P43405). The data set is described as follows: Syk enzyme inhibition (FRET, Z-LYTE). The format is biochemical. Put shortly: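 Syk or c-Src enzyme (3000 or 2000 ng/mL solutions) was preincubated 2 h at RT with compound solutions at 1, 0.1, 0.01 or 0.001 µg/mL. Z-LYTE FRET peptide (8 µM solution) and ATP (800 µM solution for c-Src, 60 µM for Syk) were then added for 1 h, followed by protease development for 1 h. Phosphorylation was read as the coumarin/fluorescein emission ratio.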

The test system of data set [2] is Salmonella typhimurium strain TA98. The data set is described as follows: Mutagenicity assessment (bacterial reverse mutation screen). Format: cell-based. Conditions: strain TA98, presence or absence of S-9 mix, up to 1000 μg/plate analysable. The protocol: (§1) Studies were conducted by Sequani (Ledbury, Herefordshire, UK) to assess compounds of the invention for their ability to induce mutations in two histidine dependent auxotrophic mutants of Salmonella typhimurium, strains TA98 and TA100 in vitro.
(§2) The mutation screen was conducted using the plate incorporation method and was performed in both the presence and absence of S-9 mix (a liver post-mitochondrial fraction derived from the livers of Aroclor 1254 treated rats). The bacteria were exposed to test compounds dissolved in dimethylsulphoxide, which solvent was also used as the negative control. The dose levels used were 0.32, 1.6, 8, 40, 200, 1000 or 5000 μg/plate.
(§3) Precipitation was also noted in both strains at 1000 μg/plate in the presence and absence of S-9 mix.

In data set [3] the test system is Salmonella typhimurium strain TA100. Described as above. The format is cell-based. Conditions: strain TA100, presence or absence of S-9 mix, up to 1000 μg/plate analysable. As for the experimental part:
as §1, §2, §3

The nature of data set [4]: Hydrolytic stability study. Conditions: DMSO:water (3:1), 1 mg/mL. The format is physicochemical. The protocol: Chemical stability of compounds of the invention was assessed in a mixture of DMSO and water (3:1) at a test compound concentration of 1 mg/mL
Sample Preparation • A 1.0 mg sample of test compound was dissolved in 750 μL of DMSO. Water (250 μL) was added slowly, ensuring no precipitation occurred.
Recording Stability • A 50 μL aliquot of the test solution was removed and analysed in duplicate by 5 μL HPLC injections. The peak area for the test compound was recorded following manual integration of the corresponding UV trace. • The test solution was heated to 60° C., with stirring, and 50 μL aliquots removed for HPLC analysis at 5 and 24 h timepoints.

Data set [5] has as its system intestinal mucosa biopsies from the inflamed regions of the colon of ulcerative colitis (IBD) patients. The data set is described as follows: Human biopsy assay (assay l). Conditions: 1 μg/mL; for cytokine (IL-1β, IL-6 and IL-8) release compared to the DMSO control: 24 hours, biopsies from ulcerative colitis patients; for Cytokine release from biopsies of UC patients: IL-1β release / Cytokine release from biopsies of UC patients: IL-6 release / Cytokine release from biopsies of UC patients: IL-8 release: 24 hr, relative to DMSO control = 100%. The format is cell-based. The protocol:
Intestinal mucosa biopsies are obtained from the inflamed regions of the colons of IBD patients. The biopsy material is cut into small pieces (2-3 mm) and placed on steel grids in an organ culture chamber at 37° C. in a 5% CO2/95% O2 atmosphere in serum-free media. DMSO control or test compounds at the desired concentration are added to the tissue and incubated for 24 hr in the organ culture chamber. The supernatant is harvested for determination of IL-6, IL-8, IL-1β and TNFα levels by R&D ELISA.

The test system of data set [6] is rat, Cynomolgus macaque or human hepatocytes. The data set is described as follows: Analysis of metabolites after incubation with hepatocytes. Format: in vitro ADME. Conditions: 10 μM. As for the experimental part: Studies were conducted by BioFocus (Saffron Walden, UK) to determine the metabolic fate of the compound of Example 16 following incubation with rat, Cynomolgus macaque or human hepatocytes.
Separate incubations (n=3) of the compound of Example 16 (10 μM initial concentration) or DMSO control, were performed with cryopreserved hepatocytes from each species (0.5 million cell/mL) at 37° C. for 0, 60 and 90 minutes before termination of reactions and compound extraction with acetonitrile. Sample replicates were pooled prior to analysis.
Potential metabolites were identified using time-of-flight (TOF) and triple quadruple (TQ) mass spectrometers.

The mark [7] stands for this setting: plasma, read-out: Median plasma concentration.
Setting [8] is: total colon, read-out: Median total colon concentration.

For the compound `COCCOCCOCCNC(=O)c1cc(Nc2cc(Oc3ccc(NC(=O)Nc4cc(C(C)(C)C)cc(NS(C)(=O)=O)c4OC)c4ccccc34)ccn2)cc(OC)c1` [Example 3, 3-((4-((4-(3-(5-(tert-Butyl)-2-methoxy-3-(methylsulfonamido)phenyl)ureido)naphthalen-1-yl)oxy)pyridin-2-yl)amino)-5-methoxy-N-(2-(2-(2-methoxyethoxy)ethoxy)ethyl)benzamide], in data set [1] (setting [7]), the concentration at 6 h was 114 ng/mL. In data set [1] (setting [8]), the concentration at 1 h is 107 ng/g, the concentration at 2 h was 274 ng/g, the concentration at 4 h came to 209 ng/g and the concentration at 6 h was determined as 255 ng/g. Further, in data set [1] (setting [8]), the concentration at 8 h was found to be 278 ng/g, the concentration at 12 h was 232 ng/g and the concentration at 24 h was found to be 19.1 ng/g. Moreover, in the data set on human hepatocytes, the “Mean hepatic extraction ratio” value is reported as 0.85. For the same compound, the concentration for half-maximal inhibition (IC50) at Syk came to 692 nM.
Take `COCCOCCOCCOc1cc(Nc2nccc(Oc3ccc(NC(=O)Nc4cc(C(C)(C)C)cc(NS(C)(=O)=O)c4OC)c4ccccc34)n2)cc(OC)c1` [Example 4, N-(5-(tert-Butyl)-2-methoxy-3-(3-(4-((2-((3-methoxy-5-(2-(2-(2-methoxyethoxy)ethoxy)-ethoxy)phenyl)amino)pyrimidin-4-yl)oxy)naphthalen-1-yl)ureido)phenyl)methanesulfonamide]: the “increases in revertant colonies” value in data set [2] is “no dose-related or statistically significant increases”. Moreover, in data set [3], the “increases in revertant colonies” value was “no dose-related or statistically significant increases”. Moreover, the “% Parent Remaining” value in data set [4] (0 min) is reported as 100%. For the same compound, the “% Parent Remaining” value in data set [4] (60° C., 300 min) was determined as 103%. Moreover, the “% Parent Remaining” value in data set [4] (60° C., 1440 min) stood at 102%. Moreover, in data set [5], the “cytokine (IL-1β, IL-6 and IL-8) release compared to the DMSO control” value (from here on “cytokine … compared to the DMSO control”) was “significantly inhibited”; the “Cytokine release from biopsies of UC patients: IL-1β release” value came to 17 ± 21%; the “Cytokine release from biopsies of UC patients: IL-6 release” value was found to be 5 ± 1%; the “Cytokine release from biopsies of UC patients: IL-8 release” value is 2 ± 1%. Moreover, the midpoint of inhibition at Syk, the IC50, lay at 86 nM.
For `C#Cc1cc(Nc2nccc(Oc3ccc(NC(=O)Nc4cc(C(C)(C)C)cc(NS(C)(=O)=O)c4OC)c4ccccc34)n2)cc(C(=O)NCCOCCOCCOC)c1` [Example 16], the “increases in revertant colonies” value in data set [2] and in data set [3] was “no dose-related or statistically significant increases” each time. Also, the “% Parent Remaining” value came to 100% in data set [4] (0 min); 100% in data set [4] (60° C., 300 min); 100% in data set [4] (60° C., 1440 min). Further, in data set [6] (hepatocytes), the “number of metabolites resulting from oxidation on the polyethylene glycol chain of the amide moiety” value was determined as 8. In data set [6] (hepatocytes), the “products connected to metabolism at the naphthalene moiety” value is “no products were noted”. In addition, the “number of metabolites formed in hepatocytes” value in data set [6] (rat, Cynomolgus macaque or human hepatocytes, 0, 60 and 90 minutes) came to 9. Besides, the “cytokine … compared to the DMSO control” value in data set [5] is given as “significantly inhibited”.
In the case of `COc1cc(Nc2cc(Oc3ccc(NC(=O)Nc4cc(C(C)(C)C)cc(NS(C)(=O)=O)c4OC)c4ccccc34)ccn2)cc(C(=O)NCCN2CCOCC2)c1` [Example 27], the “increases in revertant colonies” value in data set [2] and in data set [3] was “no dose-related or statistically significant increases” in each case. Also, the “% Parent Remaining” value is recorded as 100% in data set [4] (0 min); 102% in data set [4] (60° C., 300 min); 102% in data set [4] (60° C., 1440 min). Also, the “cytokine … compared to the DMSO control” value in data set [5] is listed as “significantly inhibited”. For the same compound, the “Cytokine release from biopsies of UC patients: IL-1β release” value in data set [5] is recorded as 11 ± 54%. The “Cytokine release from biopsies of UC patients: IL-6 release” value in data set [5] is given as 48 ± 26%. Also, the “Cytokine release from biopsies of UC patients: IL-8 release” value in data set [5] was found to be 60 ± 15%. Further, at Syk, 443 nM corresponded to half-maximal inhibition (IC50).
Regarding `COc1c(NC(=O)Nc2ccc(Oc3ccnc(Nc4ccccc4)c3)c3ccccc23)cc(C(C)(C)C)cc1C(=O)NC1COC1` [Example 75, 5-(tert-Butyl)-2-methoxy-N-(oxetan-3-yl)-3-(3-(4-((2-(phenylamino)pyridin-4-yl)oxy)-naphthalen-1-yl)ureido)benzamide], in data set [1] (setting [7]), the concentration at 1 h came out at 1.8 ng/mL, the concentration at 2 h was determined as 1.5 ng/mL, the concentration at 4 h stood at 0 ng/mL and the concentration at 6 h worked out at 0 ng/mL. Further, in data set [1] (setting [7]), the concentration at 8 h stood at 0 ng/mL, the concentration at 12 h turned out to be 0 ng/mL and the concentration at 24 h was 0 ng/mL. Besides, in data set [1] (setting [8]), the concentration at 1 h amounted to 17.8 ng/g, the concentration at 2 h is 56.2 ng/g, the concentration at 4 h stood at 1340 ng/g and the concentration at 6 h stood at 5720 ng/g. In data set [1] (setting [8]), the concentration at 8 h was determined as 350 ng/g, the concentration at 12 h is 391 ng/g and the concentration at 24 h came to 7.5 ng/g. The “increases in revertant colonies” value in data set [2] is given as “no dose-related or statistically significant increases”. Also, the “increases in revertant colonies” value in data set [3] is recorded as “no dose-related or statistically significant increases”. In the data set on human hepatocytes, the “Mean hepatic extraction ratio” value was below 0.50. In addition, in data set [4] (0 min), the “% Parent Remaining” value is reported as 100%. Further, the “% Parent Remaining” value in data set [4] (60° C., 300 min) is reported as 101%. For the same compound, in data set [4] (60° C., 1440 min), the “% Parent Remaining” value came out at 99%. The same compound yielded a half-maximal inhibitory concentration (IC50) at Syk of 214 nM.
